Measurements from patent US20060229209A1, “Copolymers based on n-vinylamide as adjuvants and agents for using in the agrotechnical field” (priority 2002, published 2006).

Tested on: Puccinia recondita
Assay: Improvement in the fungicidal activity: wheat leaves inoculated with Puccinia recondita, sprayed with fungicide plus test additive, visual assessment of infestation
Type: in vivo, Puccinia recondita on wheat variety "Kanzler"
Conditions: no test additive, 8 days in greenhouse after spraying
Experimental: Both of the leaves which developed first of wheat seeds of the variety “Kanzler”, which were raised in pots, were dusted with spores of Puccinia recondita. In order to guarantee the success of the artificial inoculation, the plants were kept for 24 hours in a humidity chamber without light at a relative humidity of 95 to 99% and a temperature of 20 to 22° C. The next day, the plants were sprayed with an aqueous suspension comprising fungicide at the concentration given below as a mixture with water and 125 ppm of the test additive. The plants were allowed to dry in the air. The experimental plants were subsequently cultivated in a greenhouse for 8 days at a temperature of 22 to 26° C. and a relative humidity of between 40 and 80%. The extent of the fungal infestation on the leaves was assessed visually and expressed as a percentage of the affected leaf area with respect to the unaffected leaf area.

Compound	% affected leaf area (Epoxiconazole 0.125 ppm a.c.)	% affected leaf area (Epoxiconazole 0.25 ppm a.c.)	% affected leaf area (Pyraclostrobin 1 ppm a.c.)	% affected leaf area (Pyraclostrobin 2 ppm a.c.)
Fc1ccc([C@]2(Cn3cncn3)O[C@H]2c2ccccc2Cl)cc1 (racemic) [Epoxiconazole, epoxiconazole]	53%	47%		
COC(=O)N(OC)c1ccccc1COc1ccn(-c2ccc(Cl)cc2)n1 [Pyraclostrobin, pyraclostrobin]			32%	13%
